This is an account of results in a melting point compilation (Tetko et al.).

As to `O=C(O)CCC(=O)c1ccc(Br)cc1`, the melting point is 146 to 147 °C.

With `Oc1ccc(-n2cccc2)cc1`, the melting point lay in the range of 119 to 124 °C. On to `O=CC=O`, for which the melting point came out at 15 °C. The result for `Nc1ncccc1C(=O)O` reads 295 to 297 °C; that for `COc1cc(C=O)ccc1OCc1c(F)cccc1Cl`, 124 to 126 °C; that for `Cc1cccc2cccnc12`, -80 °C. As to `NC(=O)C(Cc1ccccc1)NC(=O)OCc1ccccc1` (centres undefined), the melting point is 162 to 164 °C. `CC(C)(C)OC(=O)N[C@@H](Cc1ccc(Br)cc1)C(=O)O` returned a melting point of 118 °C.

Molecule `O=Cc1cccn1-c1ccc(I)cc1` came in with a melting point of 98 to 100 °C.

`CCCCCCCCCCCCCCCCCCNC` registered a melting point of 44 °C. With `CC(=O)Nc1cccnc1`, the melting point fell in the range of 131 to 133 °C. The result for `NCc1ccc(S(N)(=O)=O)cc1` reads 151 °C. Regarding `Cc1[nH]c2ccccc2c1C`, the melting point came out at 106 °C.

For the molecule `CCCCCCN(CCCCCC)C1=NC(=Cc2ccccc2)C(=O)N1c1ccccc1`, the melting point came out at 76 °C. The result for `Cc1c(C)c(C)c(Br)c(Br)c1C` reads 72 °C. With `CCc1ccsc1`, the melting point is -89.1 °C. Take `CC(C)(Sc1cc(C(C)(C)C)c(O)c(C(C)(C)C)c1)Sc1cc(C(C)(C)C)c(O)c(C(C)(C)C)c1`: the melting point turned out to be 125 °C. On to `CC(C)C(C(=O)OC(C#N)c1cccc(Oc2ccccc2)c1)c1ccc(Cl)cc1` (centres undefined), for which the melting point worked out at 60 °C. For `OCCN1CCN(CCCN2c3ccccc3Sc3ccc(Cl)cc32)CC1`, the melting point came to 94 °C.

In the case of `CC(C)(C)N(NC(=O)c1ccccc1)C(=O)c1ccccc1F`, the melting point was found to be 184 °C. For `Cc1cc([N+](=O)[O-])cnc1Br` the value was 57 °C.

In turn, `COc1ccc(-c2nn(-c3ccccc3)cc2CNc2ccc(F)c(Cl)c2)cc1` registered a melting point of 117 °C. For `CCOC(=S)SSC(=S)OCC`, the melting point is 30 °C.

Consider `CCC1CCc2ccccc2C1` (centres undefined), for which the melting point is -42.8 °C. `Cc1ccc(C(N)=O)c(N)c1` showed a melting point of 147 to 148 °C.

Molecule `OCc1csc(N2CCOCC2)n1` came in with a melting point of 118 to 120 °C.

For `CCCCCC(=O)OCC(COC(=O)CCCCC)OC(=O)CCCCC`, the melting point is -60 °C. `NC(CCS)C(=O)O` (centres undefined): the melting point was 232 °C.

Turning to `BrCCC1CCCCC1`, the melting point was -57 °C. With `CCCCCCCCCCCCCCS`, the melting point amounted to 7 °C. On to `CCCCCc1cc(O)c2c(c1)OC(C)(C)C1CCC(C)=CC21` (centres undefined), for which the melting point came out at 200 °C. The molecule `CN1C(CC(=O)c2ccccc2)CCCC1CC(O)c1ccccc1` (centres undefined) came in with a melting point of 130 °C. For `CCOC(=O)c1cn[nH]c1NC(=O)Nc1ccc(F)cc1`, the melting point was in the range of 255 to 257 °C. Consider `COc1ccc2cc(Br)ccc2c1CCl`, for which the melting point lay in the range of 144 to 146 °C. On to `C1CCCCCC1`, for which the melting point was -8 °C.

In turn, `OC1C2COC(O2)C(O)C1O` (centres undefined) had a melting point of 183 °C. For `NC(CCO)c1ccccc1` (centres undefined), the melting point was 70 to 77 °C. For `Cc1cc(=O)[nH]c(=S)[nH]1` the value was 317 to 318 °C.

`CCOC(=O)c1sc2ncccc2c1N` registered a melting point of 183 to 185 °C.

`Cc1c(Br)c(Br)c(O)c(Br)c1Br`: the melting point lay in the range of 195 to 200 °C. Take `CC(C)(C)OC(=O)NC(C)(C)C(=O)O`: the melting point is 117 to 121 °C. Molecule `C=C1[C@@H](c2ccccc2)[C@]2(Cl)C(=O)N(C)C(=O)[C@]12Cl` registered a melting point of 134 °C. `COC(=O)c1ccc(N2CCCC2)nc1` had a melting point of 119 to 121 °C. In turn, `CC1C(c2ccccc2)=Cc2ccccc21` (centres undefined) registered a melting point of 58 °C. As to `CN(C)c1ccc(C2CC(c3ccc4ccccc4c3)=NN2c2ccccc2)cc1` (centres undefined), the melting point worked out at 186 °C.

Molecule `O=C(O)C(F)(F)C(F)(F)C(F)(F)C(F)(F)C(F)(F)C(F)(F)C(F)(F)C(F)(F)C(F)(F)C(F)(F)C(F)(F)F` had a melting point of 112 to 114 °C.

As for `CCOC(=O)c1cccc(C(=O)OCC)c1`, the melting point is 11.5 °C. For `CCCCCCCC(=O)Oc1ccc(/N=N/c2ccc(CCCC)cc2)cc1` the value was 63 to 64.2 °C; for `O=C=Nc1c(F)cccc1F`, 24 °C. For `Cc1c(Cl)cccc1Cl` the value was 25.8 °C; for `Cc1nc2cc3ccccc3cc2o1`, 87 °C. The result for `CC(=O)Nc1ccccc1CCCCc1ccccc1NC(C)=O` reads 235 to 237 °C; that for `CC(C)(C)c1ccc(C(N)=O)cc1`, 173 °C; that for `CCCOCCO`, -70 °C.

With `CC12CCC3(CC1CCC1C2CCC2(C)C1CCC2(C)O)OCCO3` (centres undefined), the melting point lay within 192 to 193 °C. For the molecule `CC(C)(C)S(=O)(=O)CC(N)=S`, the melting point lay within 184 to 186 °C. Molecule `O=C(O)C(O)C(O)C(OC1OC(CO)C(O)C(O)C1O)C(O)CO` (centres undefined) returned a melting point of 113 to 118 °C. The result for `CC(C)(C)CC(=O)OCC(=O)C12OC(C)(C)OC1CC1C3CCC4=CC(=O)C=CC4(C)C3(F)C(O)CC12C` (centres undefined) reads 295 °C. `O=C(O)c1cc([N+](=O)[O-])c(Cl)c([N+](=O)[O-])c1` came in with a melting point of 161 °C. The molecule `NS(=O)(=O)c1ccc(SCCCO)c(F)c1` returned a melting point of 110 °C. For `FC(F)(F)c1cc(Cl)cc(Cl)c1` the value was -13 to -12 °C; for `Cc1noc(-c2ccccc2)c1I`, 66 to 68 °C. Regarding `COc1cc(OC)nc(NC(=O)NS(=O)(=O)N(C)S(C)(=O)=O)n1`, the melting point worked out at 179 °C. The molecule `COC(=O)C=CC(C)=CC=CC(C)=CC=CC=C(C)C=CC=C(C)C=CC(=O)O` returned a melting point of 198 °C. The result for `CCCCCCCCCCCCCCCCCCCCCCCCCCCCCCO` reads 88 °C. `Nc1ncccc1O` yielded a melting point of 170 to 176 °C.

Turning to `N#CCCP(CCC#N)CCC#N`, the melting point is 98 °C.

Consider `C=C1C2CCC3(O)C4(C)CCCC(C)(C(=O)OC5OC(CO)C(O)C(O)C5O)C4CCC3(C2)C1O` (centres undefined), for which the melting point is 218 to 220 °C. In turn, `CC1(C)C2CCC1(C)C(C(=O)O)OC2=O` (centres undefined) gave a melting point of 201 °C. In turn, `c1ccc2cc3c(ccc4cc5ccccc5cc43)cc2c1` displayed a melting point of 257 °C. The result for `COc1cc(S(C)=O)ccc1-c1nc2ncccc2[nH]1` (centres undefined) reads 204 °C; that for `CC(=O)C=C(C)C`, -53 °C; that for `Cc1c([N+](=O)[O-])cc(C(=O)N2CCCCCC2)cc1[N+](=O)[O-]`, 106 °C. In turn, `c1ccc2c3c([nH]c2c1)CCCCCC3` showed a melting point of 74 °C. With `ClC(Br)C(Cl)Br` (centres undefined), the melting point was -26 °C. Take `O=c1occc2ccccc12`: the melting point is 47 °C. The result for `ClCCCCCCCCCCCCCl` reads 29 °C. Take `COC(=O)c1cc(I)cc(C(=O)OC)c1`: the melting point lay in the range of 105 to 107 °C. Molecule `O=C(CBr)c1cccc(C(F)(F)F)c1` showed a melting point of 22 °C. The result for `CC1(C)OC2(C)CCC1C(=O)OC2(C)C` (centres undefined) reads 78 °C; that for `NC(=O)c1sc2nnccc2c1N`, 310 to 320 °C.

Molecule `O=C(O)c1ccc(N2C(=O)C3ON=C(C(=O)c4cccs4)C3C2=O)cc1` (centres undefined) yielded a melting point of 208 °C. `NNC(=O)c1csc(-c2ccccc2)n1` registered a melting point of 137 to 138 °C. The result for `O=C(c1ccc(F)cc1)C(F)(F)F` reads 24 to 27 °C; that for `O=Cc1ccc(Cl)cc1F`, 59 °C; that for `CCC1CCC(=O)O1` (centres undefined), -18 °C. As for `C=C=CC`, the melting point is -136 °C. Consider `O=C(O)c1cccc(Br)c1F`, for which the melting point amounted to 169 °C. Regarding `CCOC(=O)C1(c2cccc(O)c2)CCN(C)CC1`, the melting point amounted to 110 °C.

The molecule `O=S(=O)(F)Cc1ccccc1` showed a melting point of 93 °C. Consider `O=C(O)C1CC2CCC1C2` (centres undefined), for which the melting point was found to be 40 °C. For `Cc1cccc2c(C=O)c[nH]c12` the value was 210 °C; for `CC(=O)OC1(C)Cc2c(C)c(C)c(C)c(C)c21` (centres undefined), 70 °C. `N#Cc1ccncc1C#N` had a melting point of 80 °C. On to `COc1cc2c(cc1O)CCNC2C` (centres undefined), for which the melting point amounted to 222 °C. As for `CCCCC(C)O` (centres undefined), the melting point was -23 °C. Consider `CN=C(NC)NCc1ccccc1`, for which the melting point turned out to be 196 °C. `CC(=O)C(C)O` (centres undefined): the melting point is 15 °C. Turning to `FC(F)(F)c1cccc(Br)c1`, the melting point is 1 °C. `CC1=C(C(=O)OCc2ccccc2)C(c2ccc3c(c2)OCO3)NC(=O)N1` (centres undefined): the melting point was in the range of 158 to 160 °C. On to `FC(F)(F)c1ccnc(S)n1`, for which the melting point was in the range of 161 to 166 °C. As for `OCCCCCCC(F)(F)C(F)(F)C(F)(F)C(F)(F)C(F)(F)C(F)(F)C(F)(F)C(F)(F)F`, the melting point is 56 °C. With `C=CCc1cc2c(c(OC)c1OC)OCO2`, the melting point was 29.5 °C. The result for `O=[N+]([O-])c1cc([N+](=O)[O-])c(C(/C(=N/Nc2ccccc2)c2ccccc2)c2ccccc2)cc1Cl` (centres undefined) reads 195 to 196 °C; that for `COc1cc2nc(Cl)nc(Cl)c2cc1OC`, 177 °C; that for `CNC(=O)Oc1cc(C)c(N(C)C)c(C)c1`, 85 °C. `CC(C)SC(C)C`: the melting point is -78.1 °C.

Consider `C=CC(=C)Cl`, for which the melting point is -130 °C. In turn, `Brc1cc(Br)c(Oc2cc(Br)c(Br)cc2Br)cc1Br` came in with a melting point of 160 to 163 °C.

With `CC(C)CCCC(C)C1CCC2C3CCC4=CC(O)CCC4(C)C3CCC12C` (centres undefined), the melting point was determined as 132 °C. Regarding `Cc1c(F)c(F)c(C(=O)O)c(F)c1F`, the melting point is 174 °C. Regarding `Cn1nc(C(C)(C)C)cc1C(=O)O`, the melting point lay in the range of 151 to 154 °C.

For `CCCCOC(=O)c1ccccc1C(=O)O`, the melting point was 73.5 °C.

As for `CCCCCCCCCCCCSC(C(=O)Nc1cc(C)c(O)c(C)c1C)c1ccccc1` (centres undefined), the melting point amounted to 130 °C.

Broadly, the melting point is the temperature of the solid-liquid transition.
